# Test system: C-32 (human amelanotic melanoma) cells
# Assay: WST-1 cell viability assay, C-32
# Type: cell-based
# Details: Homo sapiens; WST-1, 72 h exposure, ± SD, n = 6
# Protocol: The synthesized compounds were tested using three cancer cell lines—human amelanotic melanoma (C-32), human breast adenocarcinoma (MDA-MB-231), and human lung adenocarcinoma (A549)—and, for comparison, normal human dermal fibroblasts (HFF-1). The WST-1 (water-soluble tetrazole salt) assay was used to evaluate the effect of the synthesized compounds on the viability of cultured cells.
# Compounds were evaluated for their antiproliferative activity using three cultured cell lines: C-32 (human amelanotic melanoma, ATCC, Manassas, VA, USA), A549 (human lung adenocarcinoma, ATCC, Manassas, VA, USA), MDA-MB-231 (human breast adenocarcinoma derived from metastatic site: pleural effusion, ATCC, Manassas, VA, USA), together with HFF-1 (normal human dermal fibroblasts, ATCC, Manassas, VA, USA). The cultured cells were kept at 37 °C and 5% CO2.
# Cells were seeded in 96-well plates at 5000/well in 100 μL of medium. After 24 h of incubation, the medium was replaced with a new one with the addition of the test substance. After 72 h, the following tests were performed: with crystal violet (determination of the number of adherent cells in the culture), the WST-1 test (determination of the relative number of living cells and their metabolic activity), and the LDH test (determination of the relative number of dead cells in cultures—cytotoxicity of the tested substance).
# WST-1 test: The WST-1 test (Roche Diagnostics, Mannheim, Germany) allows one to determine the relative number of cells in cultures. Absorbance is directly proportional to the number of cells and their metabolic activity. The absorbance measurement is performed at λ = 450 nm (reference wave 600 nm).
row,Compound,IC50
1,"C#CCNS(=O)(=O)c1ccc(O)c2ncccc12 [3a, 8-Hydroxy-N-(prop-2-yn-1-yl)quinoline-5-sulfonamide]",19.8 ± 1.1 µM
2,"C#CC(C)(C)NS(=O)(=O)c1ccc(O)c2ncccc12 [3b, 8-Hydroxy-N-(1,1-dimethylprop-2-yn-1-yl)quinoline-5-sulfonamide]",22.1 ± 1.5 µM
3,"C#CCOc1ccccc1NS(=O)(=O)c1ccc(O)c2ncccc12 [3f, 8-Hydroxy-N-[2-(prop-2-yn-1-yloxy)phenyl]quinoline-5-sulfonamide]",29.6 ± 2.6 µM
4,"C#CCOc1ccc(NS(=O)(=O)c2ccc(O)c3ncccc23)cc1 [3d, 8-Hydroxy-N-[4-(prop-2-yn-1-yloxy)phenyl]quinoline-5-sulfonamide]",10.4 ± 0.5 µM
5,"C#CCN(C)S(=O)(=O)c1ccc(O)c2ncccc12 [3c, 8-Hydroxy-N-methyl-N-(prop-2-yn-1-yl)quinoline-5-sulfonamide]",9.8 ± 0.6 µM
6,"C#CCOc1cccc(NS(=O)(=O)c2ccc(O)c3ncccc23)c1 [3e, 8-Hydroxy-N-[3-(prop-2-yn-1-yloxy)phenyl]quinoline-5-sulfonamide]",8.6 ± 0.9 µM

# Test system: S. aureus ATCC 29213
# Assay: MTT assay of bacterial respiratory activity
# Type: cell-based, Staphylococcus aureus
# Details: 24 h, at the lowest multiple of MIC giving at least 70% inhibition
# Excerpt: The MTT assay can be used to assess cell growth by measuring respiration. Bacterial cell respiratory activity (which is ultimately reflected in their viability) of less than 70% after exposure to the MIC values for each test compound is considered as a positive result for this test. This low level of cellular oxidative metabolism indicates inhibition of cell growth by inhibition of respiration. The lowest multiples of the MIC values by which inhibition of S. aureus ATCC 29213 viability [%] greater than 70% was achieved are shown in Table 4. […] Therefore, the antibacterial activity of the discussed compounds cannot be explained solely on the basis of respiration inhibition, so it is very difficult to draw a conclusion regarding the actual mechanism of action, since 8-HQs are multi-target agents, i.e., they affect several different targets at once (as discussed in the section dedicated to anticancer activity), which subsequently leads to the death of the treated resistant microorganisms.
# Compounds were prepared as previously stated and diluted in CaMH broth for S. aureus to achieve the desired final concentrations. S. aureus bacterial suspension in sterile distilled water at 0.5 McFarland was diluted 1:3. Inocula were added to each well by multi-inoculator. Diluted mycobacteria in broth free from inhibiting compounds were used as the growth control. All compounds were prepared in duplicate. Plates were incubated at 37 °C for 24 h for S. aureus. After the incubation period, 10% well volume of MTT (3-(4,5-dimethylthiazol-2-yl)-2,5-diphenyltetrazolium bromide) reagent (Sigma) was mixed into each well and incubated at 37 °C 1 h for S. aureus. Then, 100 µL of 17% sodium dodecyl sulphate in 40% dimethylformamide was added to each well. The plates were read at 570 nm. The absorbance readings from the cells grown in the presence of the tested compounds were compared with uninhibited cell growth to determine the relative percent inhibition. The percent inhibition was determined through MTT assay. The percent viability is calculated through the comparison of a measured value and that of the uninhibited control: % viability = OD570E/OD570P × 100, where OD570E is the reading from the compound-exposed cells, while OD570P is the reading from the uninhibited cells (positive control). Cytotoxic potential is determined by a percent viability of <70% [81, 82].
row,Compound,S. aureus Respiration Inhibition
1,"C#CCNS(=O)(=O)c1ccc(O)c2ncccc12 [3a, 8-Hydroxy-N-(prop-2-yn-1-yl)quinoline-5-sulfonamide]",92.5%
2,"C#CC(C)(C)NS(=O)(=O)c1ccc(O)c2ncccc12 [3b, 8-Hydroxy-N-(1,1-dimethylprop-2-yn-1-yl)quinoline-5-sulfonamide]",94.4%
3,"C#CCOc1ccccc1NS(=O)(=O)c1ccc(O)c2ncccc12 [3f, 8-Hydroxy-N-[2-(prop-2-yn-1-yloxy)phenyl]quinoline-5-sulfonamide]",81.6%
4,"C#CCOc1ccc(NS(=O)(=O)c2ccc(O)c3ncccc23)cc1 [3d, 8-Hydroxy-N-[4-(prop-2-yn-1-yloxy)phenyl]quinoline-5-sulfonamide]",73.0%
5,"C#CCN(C)S(=O)(=O)c1ccc(O)c2ncccc12 [3c, 8-Hydroxy-N-methyl-N-(prop-2-yn-1-yl)quinoline-5-sulfonamide]",95.2%
6,"C#CCOc1cccc(NS(=O)(=O)c2ccc(O)c3ncccc23)c1 [3e, 8-Hydroxy-N-[3-(prop-2-yn-1-yloxy)phenyl]quinoline-5-sulfonamide]",73.7%

# Same assay, conditions: S. aureus ATCC 29213
Compound,Conc.: lowest multiple of MIC with at least 70% inhibition of respiratory activity,Conc.: the same concentration as multiple of MBC
"C#CCNS(=O)(=O)c1ccc(O)c2ncccc12 [3a, 8-Hydroxy-N-(prop-2-yn-1-yl)quinoline-5-sulfonamide]",1× MIC (1× MBC),1× MIC (1× MBC)
"C#CC(C)(C)NS(=O)(=O)c1ccc(O)c2ncccc12 [3b, 8-Hydroxy-N-(1,1-dimethylprop-2-yn-1-yl)quinoline-5-sulfonamide]",2× MIC (2× MBC),2× MIC (2× MBC)
"C#CCOc1ccccc1NS(=O)(=O)c1ccc(O)c2ncccc12 [3f, 8-Hydroxy-N-[2-(prop-2-yn-1-yloxy)phenyl]quinoline-5-sulfonamide]",1× MIC (1× MBC),1× MIC (1× MBC)
"C#CCOc1ccc(NS(=O)(=O)c2ccc(O)c3ncccc23)cc1 [3d, 8-Hydroxy-N-[4-(prop-2-yn-1-yloxy)phenyl]quinoline-5-sulfonamide]",1× MIC (1× MBC),1× MIC (1× MBC)
"C#CCN(C)S(=O)(=O)c1ccc(O)c2ncccc12 [3c, 8-Hydroxy-N-methyl-N-(prop-2-yn-1-yl)quinoline-5-sulfonamide]",2× MIC (2× MBC),2× MIC (2× MBC)
"C#CCOc1cccc(NS(=O)(=O)c2ccc(O)c3ncccc23)c1 [3e, 8-Hydroxy-N-[3-(prop-2-yn-1-yloxy)phenyl]quinoline-5-sulfonamide]",1× MIC (1× MBC),1× MIC (1× MBC)

# Test system: Enterococcus faecalis ATCC 29212
# Assay: MIC, microtitration broth method, EF
# Type: cell-based
# Details: ATCC29212, 24 h, 37 °C, BHI broth
# Excerpt: Since there is a general decrease in immunity during the treatment of oncological patients, i.e., patients are more susceptible to infectious diseases, it is advantageous if anticancer agents show antimicrobial properties at the same time. Therefore, the effects of the compounds were also investigated against Gram-positive bacteria. For this purpose, the susceptible collection strains of aerobic Staphylococcus aureus ATCC 29213 and facultatively aerobic Enterococcus faecalis ATCC 29212 and resistant clinical isolates of methicillin-resistant S. aureus (MRSA) SA 3202, SA 630 carrying the mecA gene, and vancomycin-resistant isolates of E. faecalis (VRE) 342B, 368, and 725B carrying the vanA gene were selected. Thus, the selection of the studied bacterial strains was adopted following the CLSI ([…]) international reference methodologies.
# The in vitro antibacterial activity of the synthesized compounds was evaluated against representatives of multidrug-resistant bacteria, […] clinical isolates of methicillin-resistant S. aureus: clinical isolates of human origin, MRSA SA 3202, and MRSA SA 630 (National Institute of Public Health, Prague, Czech Republic), carrying the mecA gene. These two clinical isolates were classified as vancomycin-susceptible (but with a higher MIC of vancomycin equal to 2 μg/mL (VA2-MRSA). Vancomycin- and methicillin-susceptible S. aureus ATCC 29213 and vancomycin-susceptible Enterococcus faecalis ATCC 29212, obtained from the American Type Culture Collection, were used as the reference and quality control strains. Three vanA gene-carrying vancomycin-resistant isolates of E. faecalis (VRE 342B, VRE 368, VRE 725B) (Department of Infectious Diseases and Microbiology, Faculty of Veterinary Medicine, University of Veterinary Sciences Brno, Czech Republic) were provided by Oravcova et al..
# The minimum inhibitory concentrations (MICs) were evaluated by the microtitration broth method according to the CLSI, with some modifications. The compounds were dissolved in DMSO (Sigma, St. Louis, MO, USA) to obtain a concentration of […] and diluted in a microtitration plate in an appropriate medium, i.e., Cation-Adjusted Mueller–Hinton Broth (CaMH, Oxoid, Basingstoke, UK) for staphylococci, and Brain Heart Infusion Broth (BHI, Oxoid) for enterococci to reach the final concentration of 256–0.125 µg/mL. Microtiter plates were inoculated with test microorganisms so that the final concentration of bacterial cells was 10^5. Ampicillin, oxacillin, and ciprofloxacin (Sigma) were used as reference drugs. A drug-free control and a sterility control were included. The plates were incubated for 24 h at 37 °C for staphylococci and enterococci. […] The experiments were repeated three times.
row,Compound,MIC
1,"C#CCNS(=O)(=O)c1ccc(O)c2ncccc12 [3a, 8-Hydroxy-N-(prop-2-yn-1-yl)quinoline-5-sulfonamide]",977 µM
2,"C#CC(C)(C)NS(=O)(=O)c1ccc(O)c2ncccc12 [3b, 8-Hydroxy-N-(1,1-dimethylprop-2-yn-1-yl)quinoline-5-sulfonamide]",883 µM
3,"C#CCOc1ccccc1NS(=O)(=O)c1ccc(O)c2ncccc12 [3f, 8-Hydroxy-N-[2-(prop-2-yn-1-yloxy)phenyl]quinoline-5-sulfonamide]",362 µM
4,"C#CCOc1ccc(NS(=O)(=O)c2ccc(O)c3ncccc23)cc1 [3d, 8-Hydroxy-N-[4-(prop-2-yn-1-yloxy)phenyl]quinoline-5-sulfonamide]",362 µM
5,"C#CCN(C)S(=O)(=O)c1ccc(O)c2ncccc12 [3c, 8-Hydroxy-N-methyl-N-(prop-2-yn-1-yl)quinoline-5-sulfonamide]",464 µM
6,"C#CCOc1cccc(NS(=O)(=O)c2ccc(O)c3ncccc23)c1 [3e, 8-Hydroxy-N-[3-(prop-2-yn-1-yloxy)phenyl]quinoline-5-sulfonamide]",362 µM

# From publication PMC11396667, “Design, Synthesis, and Anticancer and Antibacterial Activities of Quinoline-5-Sulfonamides” (Molecules, 2024)
